According to patent publication EP1143968B9 (priority 1999, dated 2000):
Read-outs that look alike come from different tables or passages of the source.

Tests used:
melanoma/M14 = experiment: cells; type: cell-based
Method: (§1) In studies performed in support of the invention, the in vitro cytotoxicity of 7-hexanoyl taxol was compared to paclitaxel. As described in Example 1, LC50 values, which signify the concentration of drug at which 50% of the cells are killed, were determined in five cell lines.
(§2) A suspension of each cell line which was diluted according to the particular cell type and the expected target cell density (5,000-40,000 cells per well based on cell growth characteristics) was added by pipet (100 µL) into a 96-well microtiter plate. The cells were allowed a pre-incubation period of 24 hours at 37°C for stabilization. At the end of the pre-incubation period (T0), dilutions of 7-hexanoyl taxol or paclitaxel were added in 100 µL aliquots to the microtiter plate wells. The cells were incubated in the presence of the drug for 48 hours under a 5% CO2 atmosphere at 100% humidity. The cells were assayed using the sulforhodamine B assay. A plate reader was used to read the optical densities.
(§3) The LC50 values were taken as the concentration of compound where 100 x (T-T0)/T0 = -50.

ovarian cancer/OVCAR-5 = experiment: cells; type: cell-based
Method: as §1, §2, §3

colon cancer/HT 29 = experiment: cells; type: cell-based
Method: as §1, §2, §3

[1] = tested on: non-small cell lung cancer/NCI H226; experiment: cells; type: cell-based
Method: as §1, §2, §3

melanoma/SK-MEL-2 = experiment: cells; type: cell-based
Method: as §1, §2, §3

[2] = Relative water solubility by reverse phase HPLC; settings: for retention time: reverse phase column, silica with diphenylmethyl functionalities, mobile phase acetonitrile/water, longer retention = less water soluble
Method: The water solubility of 7-hexanoyl taxol relative to paclitaxel was determined via HPLC analysis using a reverse phase column and illustrations of the HPLC traces are shown in Fig. 2. The column employed was made of silica with the hydrophilic Si-OH functionalities converted to hydrophobic diphenylmethyl functionalities. The mobile phase was acetonitrile/water. In this column, a hydrophilic or water soluble test material is retained primarily in the aqueous mobile phase, resulting in the water soluble compounds eluting from the column earlier than hydrophobic or water insoluble compounds.

[3] = tested on: coronary arteries of pigs; experiment: In vivo testing of drug-loaded polymer stents in pig coronary arteries; settings: for % Intimal Growth / % Diameter Stenosis: metal support/polymer segments stent, 1500 µg drug; for % Intimal Growth / % Diameter Stenosis / reduction in percent stenosis compared to the stent containing paclitaxel: 28 days; for % Diameter Stenosis: morphometric analysis; for reduction in percent stenosis compared to the stent containing paclitaxel: pigs
Method: In studies performed in support of the invention, polymeric materials containing 7-hexanoyl taxol were prepared from an acrylate/methyacrylate monomer mixture and polymerized using a methacrylate crosslinker, as described in Example 2. 7-hexanoyl taxol was incorporated into the polymer by contacting the polymer with a concentrated solution of the 7-hexanoyl taxol in a suitable organic solvent. Such polymeric materials, and polymeric materials similarly formed but with paclitaxel rather than 7-hexanoyl taxol, were used in combination with a support stent, as illustrated in Fig. 3C. The test and control stents were placed in the coronary arteries of pigs, as described in Example 3, and were left in vivo for 28 days. A metal stent not carrying a polymeric material was also placed into an-artery. At the time of insertion of the test and control stents, the coronary artery was characterized using a computer-based coronary angiography analysis system (Umans, V.A., et al., JACC 21(6):1382-1390, (1993)). Boundaries of a selected coronary artery segment were detected automatically from optically magnified and video-digitized regions of interest. The catheter used for insertion of the stents was used as a scaling device to determine the dimensions of the artery at the site of implantation. The original vessel diameter at the time of implantation was determined.
After the 28 day test period, the arteries were then explanted from the pig and pressure fixed for morphometric analysis. […] The percent stenosis was taken as one minus the stented vessel's minimum lumen diameter divided by the diameter of an unstented reference vessel time one-hundred. The percent intimal growth was also determined from the following equation: 1-[(stented vessel's minimum lumenal diameter)/(diameter of stented portion prior to stent placement)]*100. The balloon to artery ratio was also determined as a measure of the degree of distension of the vessel by the balloon.
In another study in support of the invention, stents were prepared as described in Examples 2 and 3. The polymeric materials carried either 7-hexanoyl taxol, paclitaxel or 7-xylosyltaxol. […] The stents were placed in coronary arteries of pigs, according to the procedure described above. After the test period, the percent diameter stenosis and neointimal thickness of the arteries were determined. The percentage of diameter stenosis was determined by two procedures, via quantative coronary angiography (QCA) and via morphometric evaluation of the vessels. The later procedure is described in Example 3. The former procedure, QCA, was performed according to the procedure of Umans, et al. described above, with lumen dimensions determined prior to explanting the vessels for morphometric analysis.
A polymer sleeve, prepared as described in Example 2, was placed about a metal, corrugated stent. The polymer sleeve contained 1500 µg of 7-hexanoyl taxol.
The two-drug loaded stents and two control metal stents with no polymer sleeve were placed into the coronary arteries of healthy Domestic Farm Swine pigs (Pork Power, Inc.) by conventional techniques using a commercially available catheter (Advanced Cardiovascular Systems). The stents were imaged during and after the insertion procedure to ensure proper placement using conventional angiographic imaging techniques. The metal control stents were placed in two different pigs, in one pig the stent was positioned in the left anterior descending artery and in the other pig in the right coronary artery. The comparative control stent containing paclitaxel was placed in one animal in the right coronary artery. The test stents containing 7-hexanoyl taxol were placed in two pigs, one stent in the right coronary artery and the other stent in the other pig in the left circumflex artery.

[4] = Table 3 study, stents in coronary arteries of pigs

CC(=O)O[C@H]1C(=O)[C@@]2(C)[C@H]([C@H](OC(=O)c3ccccc3)[C@]3(O)C[C@H](OC(=O)[C@H](O)[C@@H](NC(=O)c4ccccc4)c4ccccc4)C(C)=C1C3(C)C)[C@]1(OC(C)=O)CO[C@@H]1C[C@@H]2O [Paclitaxel, reference compound]
CC50 (melanoma/M14; 48 h, read-out: LC50): 100 µM
CC50 (ovarian cancer/OVCAR-5; Homo sapiens, OVCAR-5, 48 h, read-out: LC50): > 100 µM
CC50 (colon cancer/HT 29; Homo sapiens, HT-29, 48 h, read-out: LC50): 30 µM
CC50 ([1]; Homo sapiens, NCI-H226, 48 h, read-out: LC50): 70 µM
CC50 (melanoma/SK-MEL-2; Homo sapiens, SK-MEL-2, 48 h, read-out: LC50): 100 µM
retention time [2]: 18.5 min
% Intimal Growth ([3]; right coronary artery): 29.5%
% Diameter Stenosis ([3]; right coronary artery): 34%

CCCCCC(=O)OC1CC2OCC2(OC(C)=O)C2C(OC(=O)c3ccccc3)C3(O)CC(OC(=O)C(O)C(NC(=O)c4ccccc4)c4ccccc4)C(C)=C(C(OC(C)=O)C(=O)C12C)C3(C)C (stereo not drawn) [7-hexanoyl taxol]
CC50 (melanoma/M14; melanoma/M14, 48 hours with drug, read-out: LC50 (the source's name)): 1.1 µM
CC50 (ovarian cancer/OVCAR-5; ovarian cancer/OVCAR-5, 48 hours with drug, read-out: LC50 (the source's name)): 50 µM
CC50 (colon cancer/HT 29; colon cancer/HT 29, 48 hours with drug, concentration at which 50% of the cells are killed, read-out: LC50 (the source's name)): 30 µM
CC50 ([1]; non-small cell lung cancer/NCI H226, 48 hours with drug, read-out: LC50 (the source's name)): > 100 µM
CC50 (melanoma/SK-MEL-2; melanoma/SK-MEL-2, 48 hours with drug, read-out: LC50 (the source's name)): > 100 µM
water solubility relative to paclitaxel ([2]; from the hydrophobic shift of HPLC retention time): less water soluble than paclitaxel
retention time [2]: 30.9 min
intimal thickening compared to paclitaxel [3, 4]: less
percent stenosis compared to paclitaxel [3, 4]: lower
percent diameter stenosis compared to the water-soluble derivative, 7-xylosyltaxol ([3]; Table 3 study, stents in coronary arteries of pigs, QCA and morphometric evaluation): considerably lower
% Intimal Growth ([3]; left circumflex artery): 2.3%
% Diameter Stenosis ([3]; left circumflex artery): 16%
reduction in percent stenosis compared to the stent containing paclitaxel ([3]; one case (of the two stents with 7-hexanoyl taxol)): two-fold
% Intimal Growth ([3]; right coronary artery): -7.1%
% Diameter Stenosis ([3]; right coronary artery): 4%
reduction in percent stenosis compared to the stent containing paclitaxel ([3]; the other case (of the two stents with 7-hexanoyl taxol)): ~8 fold
